From patent US5053070A, “Pyrimidine derivatives, preparation processes thereof, herbicide containing the same, and herbicidal compositions containing the same along with other active ingredient” (Mitsui Toatsu Chemicals, Incorporated, priority 1988, dated 1991)
Converted amounts (≈) assume the structure as drawn.

Assays:
[1] = tested on: rice; assay: Treatment of soil under submerged condition, post-emergence (Test 5), injury; type: in vivo; conditions: 30 g ai/a granule, 30 days later
In short: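 Pots of submerged soil were sown with weed seeds or tubers, and 2-3-leaf rice seedling pairs were transplanted. At barnyardgrass two-leaf stage a granule formulation was applied. Weed emergence and rice injury were rated 30 days later as damage degrees.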

[2] = tested on: ALS (acetolactate syntase); assay: ALS enzyme assay (Test 1); type: biochemical, barnyardgrass; conditions: 1,000 ppm (0.5 mg/0.5 ml)
In short: (§1)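 Partially purified ALS from dark-grown pea and barnyardgrass seedlings incubated 1 h at 30° C with pyruvate, TPP, MgCl2 and FAD. Compounds tested at 1,000 ppm (0.5 mg/0.5 ml). Acetoin formed detected colorimetrically at 525 nm via creatine/α-naphthol, relative to blank and acid-stopped controls.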

[3] = tested on: narrowleaf waterplantain; assay: Petri dish test (Test 6); type: in vivo; conditions: 336 h; seeds on filter paper, 25° C., 14 days; read-out: I80 (ppm)
In short: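 Narrowleaf waterplantain seeds placed on filter paper pre-treated with compound in acetone (solvent air-dried) in 9 cm Petri dishes with 10 ml water, grown at 25° C in light. Growth was scored after fourteen days as degree of damage against an untreated group.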

[4] = tested on: common lambsquarters; assay: Upland foliar application test (Test 3); type: in vivo; conditions: 30 g ai/a, foliar spray at 2-3 leaves, 30th day
In short: (§2)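 Scores record the degree of damage to weeds and injury to crops, observed 30 days after treatment. Each species was seeded in pots of upland-field soil and raised under glass to 2-3 leaves, then its foliage was sprayed with diluted compound emulsion at 5 l per are.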

[5] = tested on: green foxtail; assay: Upland foliar application test (Test 3); type: in vivo; conditions: 30 g ai/a, foliar spray at 2-3 leaves, 30th day
In short: as §2

[6] = tested on: barnyardgrass; assay: Upland foliar application test (Test 3); type: in vivo; conditions: 30 g ai/a, foliar spray at 2-3 leaves, 30th day
In short: as §2

[7] = tested on: large crabgrass; assay: Upland foliar application test (Test 3); type: in vivo; conditions: 30 g ai/a, foliar spray at 2-3 leaves, 30th day
In short: as §2

[8] = tested on: johnsongrass; assay: Upland foliar application test (Test 3); type: in vivo; conditions: 30 g ai/a, foliar spray at 2-3 leaves, 30th day
In short: as §2

[9] = tested on: redroot pigweed; assay: Upland foliar application test (Test 3); type: in vivo; conditions: 30 g ai/a, foliar spray at 2-3 leaves, 30th day
In short: as §2

[10] = tested on: foxtail meadow; assay: Upland foliar application test (Test 3); type: in vivo; conditions: 30 g ai/a, foliar spray at 2-3 leaves, 30th day
In short: as §2

[11] = tested on: ALS (acetolactate syntase); assay: ALS enzyme assay (Test 1); type: biochemical, pea; conditions: 1,000 ppm (0.5 mg/0.5 ml)
In short: as §1

[12] = tested on: soybean; assay: Upland soil application test (Test 2), crop injury; type: in vivo; conditions: 30 g ai/a, soil spray before emergence, 30 days later
In short: (§3)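 Pre-emergence soil spray, greenhouse. Weed seeds mixed through upland soil; crops sown alongside. Day 1 post-sowing: wettable-powder formulation, water-diluted, applied at 10 l/are by pressure ULV sprayer. Read at 30 days as air-dried weight vs untreated pots, scored on a graded damage scale.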

[13] = tested on: peanut; assay: Upland soil application test (Test 2), crop injury; type: in vivo; conditions: 30 g ai/a, soil spray before emergence, 30 days later
In short: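 Weeds are grown from seed incorporated in upland field soil under greenhouse conditions and treated pre-emergence, one day after sowing, with a water-diluted wettable powder of each compound. Effect is scored after 30 days from air-dried weight relative to untreated pots.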

[14] = tested on: cotton; assay: Upland soil application test (Test 2), crop injury; type: in vivo; conditions: 30 g ai/a, soil spray before emergence, 30 days later
In short: as §3

| SMILES | Inhibitory activity (%) Barnyardgrass [2] [%] | Inhibitory activity (%) Pea [11] [%] | Injury Rice [1] | IC80 [3] [µg/mL] | Herbicidal effects Common lambsquarters [4] | Herbicidal effects Green foxtail [5] | Herbicidal effects Barnyardgrass [6] | Herbicidal effects Large crabgrass [7] | Herbicidal effects Johnsongrass [8] | Herbicidal effects Redroot pigweed [9] | Herbicidal effects Foxtail meadow [10] | Injury Soybean [12] | Injury Peanut [13] | Injury Cotton [14] |
| --- | --- | --- | --- | --- | --- | --- | --- | --- | --- | --- | --- | --- | --- | --- |
| CCCC=CCON=Cc1ccccc1Oc1nc(OC)cc(OC)n1 [compound 25] | 39 | 0 | 1 (71-90 (Slight damages)) | 17 (≈ 47.6 µM) | 4 (6-10 (Severe damages)) | 5 (0-5 (Death)) | 4 (6-10 (Severe damages)) | 5 (0-5 (Death)) | 5 (0-5 (Death)) | 4 (6-10 (Severe damages)) | 5 (0-5 (Death)) | 0 (91-100 (No damages)) | 0 (91-100 (No damages)) | 0 (91-100 (No damages)) |
| COc1cc(OC)nc(Oc2ccccc2C=NOCCc2ccccc2)n1 [compound 23] | 35 | 0 | 0 (91-100 (No damages)) | 100 (≈ 264 µM) | 3 (11-40 (Medium damages)) | 4 (6-10 (Severe damages)) | 3 (11-40 (Medium damages)) | 3 (11-40 (Medium damages)) | 5 (0-5 (Death)) | 3 (11-40 (Medium damages)) | 4 (6-10 (Severe damages)) | 0 (91-100 (No damages)) | 0 (91-100 (No damages)) | 0 (91-100 (No damages)) |
| C=CC(C)ON=Cc1ccccc1Oc1nc(OC)cc(OC)n1 (stereo not drawn) [Compound No. 2] | 21 | 0 | 0 (91-100 (No damages)) | 100 (≈ 304 µM) | 4 (6-10 (Severe damages)) | 5 (0-5 (Death)) | 5 (0-5 (Death)) | 5 (0-5 (Death)) | 5 (0-5 (Death)) | 4 (6-10 (Severe damages)) | 5 (0-5 (Death)) | 0 (91-100 (No damages)) | 0 (91-100 (No damages)) | 0 (91-100 (No damages)) |

The next lines start with results.

| Inhibitory activity (%) Barnyardgrass [2] [%] | Inhibitory activity (%) Pea [11] [%] | SMILES | Injury Rice [1] | IC80 [3] [µg/mL] | Herbicidal effects Common lambsquarters [4] | Herbicidal effects Green foxtail [5] | Herbicidal effects Barnyardgrass [6] | Herbicidal effects Large crabgrass [7] | Herbicidal effects Johnsongrass [8] | Herbicidal effects Redroot pigweed [9] | Herbicidal effects Foxtail meadow [10] | Injury Soybean [12] | Injury Peanut [13] | Injury Cotton [14] |
| --- | --- | --- | --- | --- | --- | --- | --- | --- | --- | --- | --- | --- | --- | --- |
| 58 | 0 | COc1cc(OC)nc(Oc2ccccc2C=NOCc2cccc(C)c2)n1 [compound 20] | 0 (91-100 (No damages)) | 100 (≈ 264 µM) | 4 (6-10 (Severe damages)) | 5 (0-5 (Death)) | 5 (0-5 (Death)) | 5 (0-5 (Death)) | 5 (0-5 (Death)) | 5 (0-5 (Death)) | 5 (0-5 (Death)) | 0 (91-100 (No damages)) | 0 (91-100 (No damages)) | 0 (91-100 (No damages)) |
| 55 | 0 | CC#CCON=Cc1ccccc1Oc1nc(OC)cc(OC)n1 [compound 10] | 1 (71-90 (Slight damages)) | 17 (≈ 51.9 µM) | 4 (6-10 (Severe damages)) | 4 (6-10 (Severe damages)) | 5 (0-5 (Death)) | 5 (0-5 (Death)) | 5 (0-5 (Death)) | 5 (0-5 (Death)) | 4 (6-10 (Severe damages)) | 0 (91-100 (No damages)) | 0 (91-100 (No damages)) | 0 (91-100 (No damages)) |
| 36 | 0 | COc1cc(OC)nc(Oc2ccccc2C=NO)n1 [Compound No. 24, 2-(4,6-dimethoxy-2-pyrimidinyloxy)-benzaloxime] | 1 (71-90 (Slight damages)) | 100 (≈ 363 µM) | 3 (11-40 (Medium damages)) | 4 (6-10 (Severe damages)) | 4 (6-10 (Severe damages)) | 4 (6-10 (Severe damages)) | 5 (0-5 (Death)) | 3 (11-40 (Medium damages)) | 4 (6-10 (Severe damages)) | 0 (91-100 (No damages)) | 0 (91-100 (No damages)) | 0 (91-100 (No damages)) |
